Results published in patent US20090306218A1, “Antimicrobial formulations” (priority 2006, published 2009).
In brackets after ≈: the same amount, converted by molar mass. Like-named read-outs stand apart in the source and are kept apart here.

Assays:
[1] = system: P. granulosum panel strains; test: Disc diffusion assay (DDA), panel of propionibacteria; type: cell-based, Propionibacterium granulosum; conditions: 200 μg per disc
[2] = system: P. acnes PRP panel strains; type: cell-based, Propionibacterium acnes; conditions: 200 μg per disc
[3] = system: Por. gingivalis NCTC 11834; test: MIC assay, liquid medium; type: cell-based, Porphyromonas gingivalis
Procedure: (§1) (a) Minimum Inhibitory Concentration (MIC) Assay
(§2) This is a standard international method for quantitatively assessing the antimicrobial activity of a compound in a liquid medium. The method used a sterile 96-well microtitre plate, capable of holding about 200 μl of liquid per well. […] The culture medium was as described above.
(§3) After incubation, the microtitre plate was examined visually (with the aid of a light box) for cloudiness in each well, which would indicate microbial growth. The MIC value was recorded as the lowest concentration of test compound required to inhibit microbial growth, i.e., the lowest concentration for which the liquid in the well remained clear.
(§4) The assays were conducted in duplicate (minimum) and included both negative (culture medium with no micro-organisms) and positive (culture medium plus diluting solvent plus micro-organism) controls.
(§5) MIC and MBC assays, as described above, were carried out using the test compounds t-butyl-p-hydroquinone (TBHQ) and bismuth subsalicylate (both ex-Sigma Aldrich). The TBHQ was dissolved in ethanol and the bismuth subsalicylate in DMSO. All the experiments were conducted in triplicate.

[4] = system: P. granulosum panel strains; test: MBC assay, panel of propionibacteria
Procedure: (§8) This assay, normally carried out after an MIC assay, determines the minimum concentration of a compound that is lethal to the micro-organism being tested.
(§9) These samples were then individually sub-cultured on antibiotic-free agar medium, under the incubation conditions described above. Following incubation they were examined visually for microbial growth.

[5] = system: Por. gingivalis NCTC 11834; test: MBC assay; type: cell-based, Porphyromonas gingivalis
Procedure: (§6) (b) Minimum Bactericidal Concentration (MBC) Assay
as §5

[6] = system: Propionibacterium acnes NCTC 737; test: Minimum inhibitory concentration (MIC) assay, liquid medium; type: cell-based; conditions: for MIC: P. acnes NCTC 737
Procedure: as §1, §2, §3, §4
(§7) MIC, MBC and DDA assays, as described above, were carried out using the test compound t-butyl-p-hydroquinone (TBHQ) and a range of bismuth salts (all ex-Sigma Aldrich, UK).

[7] = system: P. acnes PRP panel strains; test: MBC assay, panel of propionibacteria
Procedure: as §8, §9

[8] = system: P. acnes PRP panel strains; type: cell-based, Propionibacterium acnes; conditions: for MIC: liquid medium
[9] = system: Propionibacterium acnes NCTC 737; test: Minimum bactericidal concentration (MBC) assay; type: cell-based; conditions: P. acnes NCTC 737
Procedure: as §6, §7

[10] = system: Propionibacterium acnes NCTC 737; test: Disc diffusion assay (DDA); type: cell-based; conditions: P. acnes NCTC 737, 200 μg per disc
Procedure: (d) Disc Diffusion Assay (DDA)
This is an internationally recognised standard method for qualitatively assessing the antimicrobial activity of a compound.
A sterile paper disc was impregnated with a sample of the test compound in a suitable solvent and 30 minutes allowed for the solvents to evaporate (where possible). The disc was then placed on an agar plate onto which the test micro-organism had been inoculated. The plate was then incubated under the conditions described above, following which it was examined visually for signs of microbial growth. […] The diameter of this zone of “inhibition” was measured using a ProtoCOL™ automated zone sizer (Synbiosis, Cambridge, UK).
The TBHQ was dissolved in ethanol and the bismuth salts in DMSO.
All the (S)DDA experiments were conducted in triplicate.
DDA assays, as described above, were carried out using each of the test compounds individually. The quinone/bismuth salt combinations were then subjected to the SDDA assay described above.
The quinones and bismuth salts were all dissolved in DMSO.

[11] = system: P. granulosum panel strains; test: MIC assay, liquid medium, panel of propionibacteria; type: cell-based, Propionibacterium granulosum
[12] = P. granulosum NCTC 11865, resistance phenotype None
[13] = P. granulosum PRP-005, resistance phenotype MLSK
[14] = P. granulosum PRP-006, resistance phenotype MLS
[15] = P. granulosum PRP-019, resistance phenotype MLSK
[16] = P. granulosum PRP-021, resistance phenotype MLS
[17] = P. granulosum PRP-043, resistance phenotype MLS
[18] = P. granulosum PRP-044, resistance phenotype MLS
[19] = P. granulosum PRP-055, resistance phenotype None
[20] = P. acnes PRP-002, resistance phenotype Tet/MLS
[21] = P. acnes PRP-003, resistance phenotype Tet
[22] = P. acnes PRP-004, resistance phenotype Tet
[23] = P. acnes PRP-007, resistance phenotype Clin
[24] = P. acnes PRP-008, resistance phenotype Clin
[25] = P. acnes PRP-010, resistance phenotype MLSK
[26] = P. acnes PRP-017, resistance phenotype MLS
[27] = P. acnes PRP-023, resistance phenotype MLSK
[28] = P. acnes PRP-026, resistance phenotype MLS
[29] = P. acnes PRP-039, resistance phenotype Tet/MLS
[30] = P. acnes PRP-046, resistance phenotype None
[31] = P. acnes PRP-053, resistance phenotype Tet/MLS
[32] = P. acnes PRP-059, resistance phenotype MLS
[33] = P. acnes PRP-068, resistance phenotype Ery
[34] = P. acnes PRP-101, resistance phenotype Tet/MLS
[35] = P. acnes PRP-102, resistance phenotype Tet/MLS

CC(C)(C)c1cc(O)ccc1O [TBHQ, t-butyl-p-hydroquinone]
DDA (zone diameter) ([1]; P. granulosum NCTC 11865): 11.50 mm | DDA (zone diameter) ([1]; P. granulosum PRP-005): 10.67 mm | DDA (zone diameter) ([1]; P. granulosum PRP-006): 9.42 mm | DDA (zone diameter) ([1]; P. granulosum PRP-019): 10.36 mm | DDA (zone diameter) ([1]; P. granulosum PRP-021): 0.00 mm | DDA (zone diameter) ([1]; P. granulosum PRP-043): 0.00 mm | DDA (zone diameter) ([1]; P. granulosum PRP-044): 0.00 mm | DDA (zone diameter) ([1]; P. granulosum PRP-055): 18.02 mm | DDA (zone diameter) ([2]; P. acnes PRP-002): 18.12 mm | DDA (zone diameter) ([2]; P. acnes PRP-003): 18.12 mm | DDA (zone diameter) ([2]; P. acnes PRP-004): 19.88 mm | DDA (zone diameter) ([2]; P. acnes PRP-007): 12.74 mm | DDA (zone diameter) ([2]; P. acnes PRP-008): 17.92 mm | DDA (zone diameter) ([2]; P. acnes PRP-010): 18.54 mm | DDA (zone diameter) ([2]; P. acnes PRP-017): 13.98 mm | DDA (zone diameter) ([2]; P. acnes PRP-023): 18.54 mm | DDA (zone diameter) ([2]; P. acnes PRP-026): 13.98 mm | DDA (zone diameter) ([2]; P. acnes PRP-039): 17.71 mm | DDA (zone diameter) ([2]; P. acnes PRP-046): 20.71 mm | DDA (zone diameter) ([2]; P. acnes PRP-053): 17.09 mm | DDA (zone diameter) ([2]; P. acnes PRP-059): 19.88 mm | DDA (zone diameter) ([2]; P. acnes PRP-068): 16.78 mm | DDA (zone diameter) ([2]; P. acnes PRP-101): 12.84 mm | DDA (zone diameter) ([2]; P. acnes PRP-102): 14.50 mm | MIC ([3]; Por. gingivalis NCTC 11834): <0.49 µg/mL | activity against Por. gingivalis NCTC 11834 (in words) ([3]; compound alone, data of Table 8): active | MBC [4, 12]: 7.8 µg/mL (≈ 46.9 µM) | MBC [4, 13]: 62.5 µg/mL (≈ 376 µM) | MBC [4, 14]: 7.8 µg/mL (≈ 46.9 µM) | MBC [4, 15]: 31.25 µg/mL (≈ 188 µM) | MBC [4, 16]: 31.25 µg/mL (≈ 188 µM) | MBC [4, 17]: 15.6 µg/mL (≈ 93.9 µM) | MBC [4, 18]: 31.25 µg/mL (≈ 188 µM) | MBC [4, 19]: 7.8 µg/mL (≈ 46.9 µM) | MBC [5]: 0.49 µg/mL (≈ 2.95 µM) | MIC/MBC ratio [5]: <1 | MIC ([6]; Table 1): 7.8 µg/mL (≈ 46.9 µM) | MIC ([6]; separate experiment, Table 3): 7.8 µg/mL (≈ 46.9 µM) | activity against P. acnes NCTC 737 (in words) ([6]; compound alone, data of Tables 1 and 2): active | MBC [7, 20]: 7.8 µg/mL (≈ 46.9 µM) | MBC [7, 21]: 7.8 µg/mL (≈ 46.9 µM) | MBC [7, 22]: 7.8 µg/mL (≈ 46.9 µM) | MBC [7, 23]: 7.8 µg/mL (≈ 46.9 µM) | MBC [7, 24]: 7.8 µg/mL (≈ 46.9 µM) | MBC [7, 25]: 15.6 µg/mL (≈ 93.9 µM) | MBC [7, 26]: 7.8 µg/mL (≈ 46.9 µM) | MBC [7, 27]: 7.8 µg/mL (≈ 46.9 µM) | MBC [7, 28]: 7.8 µg/mL (≈ 46.9 µM) | MBC [7, 29]: 7.8 µg/mL (≈ 46.9 µM) | MBC [7, 30]: 7.8 µg/mL (≈ 46.9 µM) | MBC [7, 31]: 7.8 µg/mL (≈ 46.9 µM) | MBC [7, 32]: 7.8 µg/mL (≈ 46.9 µM) | MBC [7, 33]: 7.8 µg/mL (≈ 46.9 µM) | MBC [7, 34]: 7.8 µg/mL (≈ 46.9 µM) | MBC [7, 35]: 15.6 µg/mL (≈ 93.9 µM) | MIC [8, 20]: 3.9 µg/mL (≈ 23.5 µM) | MIC [8, 21]: 7.8 µg/mL (≈ 46.9 µM) | MIC [8, 22]: 1.95 µg/mL (≈ 11.7 µM) | MIC [8, 23]: 3.9 µg/mL (≈ 23.5 µM) | MIC [8, 24]: 3.9 µg/mL (≈ 23.5 µM) | MIC [8, 25]: 3.9 µg/mL (≈ 23.5 µM) | MIC [8, 26]: 3.9 µg/mL (≈ 23.5 µM) | MIC [8, 27]: 3.9 µg/mL (≈ 23.5 µM) | MIC [8, 28]: 3.9 µg/mL (≈ 23.5 µM) | MIC [8, 29]: 3.9 µg/mL (≈ 23.5 µM) | MIC [8, 30]: 1.95 µg/mL (≈ 11.7 µM) | MIC [8, 31]: 3.9 µg/mL (≈ 23.5 µM) | MIC [8, 32]: 3.9 µg/mL (≈ 23.5 µM) | MIC [8, 33]: 3.9 µg/mL (≈ 23.5 µM) | MIC [8, 34]: 3.9 µg/mL (≈ 23.5 µM) | MIC [8, 35]: 7.8 µg/mL (≈ 46.9 µM) | activity against the panel of propionibacteria (in words) ([8]; P. acnes and P. granulosum strains of Tables 6 and 7): active against all of the propionibacterial strains tested | MBC ([9]; Table 1): 7.8 µg/mL (≈ 46.9 µM) | MIC/MBC ratio ([9]; Table 1): 1 | MBC ([9]; separate experiment, Table 3): 7.8 µg/mL (≈ 46.9 µM) | MIC/MBC ratio ([9]; separate experiment, Table 3): 1 | DDA (zone of inhibition diameter) ([10]; Table 2): 11.04 mm | DDA (zone of inhibition diameter) ([10]; separate experiment, Table 4): 14.68 mm | MIC [11, 12]: 3.9 µg/mL (≈ 23.5 µM) | MIC [11, 13]: 62.5 µg/mL (≈ 376 µM) | MIC [11, 14]: 7.8 µg/mL (≈ 46.9 µM) | MIC [11, 15]: 31.25 µg/mL (≈ 188 µM) | MIC [11, 16]: 15.6 µg/mL (≈ 93.9 µM) | MIC [11, 17]: 15.6 µg/mL (≈ 93.9 µM) | MIC [11, 18]: 15.6 µg/mL (≈ 93.9 µM) | MIC [11, 19]: 3.9 µg/mL (≈ 23.5 µM)
